Reference: patent publication US20050112573A1, “Method of detecting toxic substance” (priority 2001, published 2005)

System: yeast genes (level of expressed mRNA)
Assay: DNA chip analysis of expressed mRNA of yeast genes after 2 h culture with a toxic chemical substance
Format: cell-based, Saccharomyces cerevisiae S288C
Conditions: for The level of expressed mRNA in the presence of chemical substance/: ratio to no chemical; for The level of expressed mRNA in the presence of chemical substance/ (ratio to absence): transport facilitation protein gene; for The level of expressed mRNA in the presence of chemical substance/ (ratio to absence of chemical substance): stress protein genes, DNA chip; for The level of expressed mRNA in the presence of chemical substance/ in its absence, gene YPR184W: yeast gene YPR184W
Method in brief: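 Values are treated-to-control fluorescence ratios from a whole-yeast-genome DNA chip (65° C, over 12 h hybridization) using Cy3/Cy5-labelled cDNA from mRNA. Log-phase S288C cells in YPD at 25° C were exposed 2 h to a toxicant at sublethal, growth-inhibiting concentration.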

Substance: sodium dodecylbenzosulfonate [(17)]
- The level of expressed mRNA in the presence of chemical substance/ (yeast gene YNL240C): 0.8
- The level of expressed mRNA in the presence of chemical substance/in the absence of chemical substance (yeast gene YNL241C): 1.0
- The level of expressed mRNA in the presence of chemical substance/ (ratio to absence) (yeast gene YNL259C): 2.6
- The level of expressed mRNA in the presence of chemical substance/ (yeast gene YNL260C): 0.9
- The level of expressed mRNA in the presence of chemical substance/in the absence of chemical substance (yeast gene YNL274C): 1.4
- The level of expressed mRNA in the presence of chemical substance/ (yeast gene YNL285W): 1.2
- The level of expressed mRNA in the presence of chemical substance/ (yeast gene YNL293W): 1.0
- The level of expressed mRNA in the presence of chemical substance/in the absence of chemical substance (yeast gene YNL331C): 1.7
- The level of expressed mRNA in the presence of chemical substance/in the absence of chemical substance (yeast gene YNL332W): 1.0
- The level of expressed mRNA in the presence of chemical substance/The level of expressed mRNA in the absence of chemical substance (yeast gene YNL333W): 1.4
- The level of expressed mRNA in the presence of chemical substance/The level of expressed mRNA in the absence of chemical substance (yeast gene YNR010W): 1.7
- The level of expressed mRNA in the presence of chemical substance/ (yeast gene YNR061C): 1.6
- The level of expressed mRNA in the presence of chemical substance/The level of expressed mRNA in the absence of chemical substance (yeast gene YNR069C): 1.1
- The level of expressed mRNA in the presence of chemical substance/ (in its absence), gene YNR072W (yeast gene YNR072W, ratio of DNA chip fluorescence intensity to that without chemical substance): 1.3
- The level of expressed mRNA in the presence of chemical substance/ (yeast gene YNR074C): 0.9
- The level of expressed mRNA in the presence of chemical substance/ (ratio to absence of chemical substance) (yeast gene YNR076W): 1.5
- The level of expressed mRNA in the presence of chemical substance/The level of expressed mRNA in the absence of chemical substance (yeast gene YOL013C): 1.1
- The level of expressed mRNA in the presence of chemical substance/ (yeast gene YOL084W): 1.3
- The level of expressed mRNA in the presence of chemical substance/ (ratio to absence), gene YOL096C (yeast gene YOL096C, mitochondria-located protein genes, 2 h culture with chemical): 1.2
- The level of expressed mRNA in the presence of chemical substance/ (in its absence), gene YOL096C (yeast gene YOL096C, ratio of DNA chip fluorescence intensity to that without chemical substance): 1.2
- The level of expressed mRNA in the presence of chemical substance/ (in its absence), gene YOL108C (yeast gene YOL108C, ratio of DNA chip fluorescence intensity to that without chemical substance): 1.5
- The level of expressed mRNA in the presence of chemical substance/ (in its absence), gene YOL116W (yeast gene YOL116W, ratio of DNA chip fluorescence intensity to that without chemical substance): 1.1
- The level of expressed mRNA in the presence of chemical substance/ (ratio to absence) (yeast gene YOL119C): 1.4
- The level of expressed mRNA in the presence of chemical substance/in the absence of chemical substance (yeast gene YOL151W): 4.0
- The level of expressed mRNA in the presence of chemical substance/ (ratio to absence) (yeast gene YOL158C): 1.4
- The level of expressed mRNA in the presence of chemical substance/ (yeast gene YOL159C): 2.0
- The level of expressed mRNA in the presence of chemical substance/ (ratio to absence of chemical substance) (yeast gene YOL161C): 1.1
- The level of expressed mRNA in the presence of chemical substance/ (ratio to absence) (yeast gene YOL163W): 0.8
- The level of expressed mRNA in the presence of chemical substance/The level of expressed mRNA in the absence of chemical substance (yeast gene YOL164W): 1.1
- The level of expressed mRNA in the presence of chemical substance/in the absence of chemical substance (yeast gene YOL165C): 1.6
- The level of expressed mRNA in the presence of chemical substance/ (yeast gene YOR007C): 1.2
- The level of expressed mRNA in the presence of chemical substance/ (ratio to absence of chemical substance) (yeast gene YOR008C): 0.8
- The level of expressed mRNA in the presence of chemical substance/ (ratio to absence of chemical substance) (yeast gene YOR009W): 0.9
- The level of expressed mRNA in the presence of chemical substance/ (ratio to absence of chemical substance) (yeast gene YOR010C): 1.4
- The level of expressed mRNA in the presence of chemical substance/ (ratio to absence) (yeast gene YOR035C): 1.6
- The level of expressed mRNA in the presence of chemical substance/The level of expressed mRNA in the absence of chemical substance (yeast gene YOR036W): 1.6
- The level of expressed mRNA in the presence of chemical substance/ (in its absence), gene YOR103C (yeast gene YOR103C, ratio of DNA chip fluorescence intensity to that without chemical substance): 1.1
- The level of expressed mRNA in the presence of chemical substance/The level of expressed mRNA in the absence of chemical substance (yeast gene YOR117W): 1.4
- The level of expressed mRNA in the presence of chemical substance/in the absence of chemical substance (yeast gene YOR120W): 1.3
- The level of expressed mRNA in the presence of chemical substance/The level of expressed mRNA in the absence of chemical substance (yeast gene YOR124C): 1.0
- The level of expressed mRNA in the presence of chemical substance/ (ratio to absence) (yeast gene YOR130C): 1.5
- The level of expressed mRNA in the presence of chemical substance/The level of expressed mRNA in the absence of chemical substance (yeast gene YOR132W): 1.2
- The level of expressed mRNA in the presence of chemical substance/in the absence of chemical substance (yeast gene YOR153W): 2.5
- The level of expressed mRNA in the presence of chemical substance/The level of expressed mRNA in the absence of chemical substance (yeast gene YOR157C): 1.2
- The level of expressed mRNA in the presence of chemical substance/ (in its absence), gene YOR180C (yeast gene YOR180C, ratio of DNA chip fluorescence intensity to that without chemical substance): 0.9
- The level of expressed mRNA in the presence of chemical substance/The level of expressed mRNA in the absence of chemical substance (yeast gene YOR181W): 1.1
- The level of expressed mRNA in the presence of chemical substance/The level of expressed mRNA in the absence of chemical substance (yeast gene YOR185C): 0.9
- The level of expressed mRNA in the presence of chemical substance/The level of expressed mRNA in the absence of chemical substance (yeast gene YOR198C): 1.1
- The level of expressed mRNA in the presence of chemical substance/ (yeast gene YOR220W): 3.5
- The level of expressed mRNA in the presence of chemical substance/ (yeast gene YOR225W): 0.9
- The level of expressed mRNA in the presence of chemical substance/in the absence of chemical substance (yeast gene YOR226C): 1.0
- The level of expressed mRNA in the presence of chemical substance/ (yeast gene YOR228C): 1.0
- The level of expressed mRNA in the presence of chemical substance/ (in its absence), gene YOR251C (yeast gene YOR251C, ratio of DNA chip fluorescence intensity to that without chemical substance): 0.9
- The level of expressed mRNA in the presence of chemical substance/ (yeast gene YOR255W): 1.0
- The level of expressed mRNA in the presence of chemical substance/The level of expressed mRNA in the absence of chemical substance (yeast gene YOR259C): 0.9
- The level of expressed mRNA in the presence of chemical substance/The level of expressed mRNA in the absence of chemical substance (yeast gene YOR261C): 1.0
- The level of expressed mRNA in the presence of chemical substance/ (ratio to absence) (yeast gene YOR270C): 0.9
- The level of expressed mRNA in the presence of chemical substance/ (ratio to absence) (yeast gene YOR273C): 3.2
- The level of expressed mRNA in the presence of chemical substance/The level of expressed mRNA in the absence of chemical substance (yeast gene YOR288C): 1.5
- The level of expressed mRNA in the presence of chemical substance/in the absence of chemical substance (yeast gene YOR303W): 1.2
- The level of expressed mRNA in the presence of chemical substance/ (ratio to absence), gene YOR316C (yeast gene YOR316C, mitochondria-located protein genes, 2 h culture with chemical): 0.8
- The level of expressed mRNA in the presence of chemical substance/ (ratio to absence) (yeast gene YOR332W): 1.3
- The level of expressed mRNA in the presence of chemical substance/ (in its absence), gene YOR348C (yeast gene YOR348C, ratio of DNA chip fluorescence intensity to that without chemical substance): 0.9
- The level of expressed mRNA in the presence of chemical substance/The level of expressed mRNA in the absence of chemical substance (yeast gene YOR355W): 0.8
- The level of expressed mRNA in the presence of chemical substance/ (in its absence), gene YOR363C (yeast gene YOR363C, ratio of DNA chip fluorescence intensity to that without chemical substance): 1.3
- The level of expressed mRNA in the presence of chemical substance/The level of expressed mRNA in the absence of chemical substance (yeast gene YOR383C): 1.4
- The level of expressed mRNA in the presence of chemical substance/ (ratio to absence), gene YPL040C (yeast gene YPL040C, mitochondria-located protein genes, 2 h culture with chemical): 0.8
- The level of expressed mRNA in the presence of chemical substance/ (ratio to absence of chemical substance) (yeast gene YPL059W): 1.8
- The level of expressed mRNA in the presence of chemical substance/in the absence of chemical substance (yeast gene YPL088W): 9.1
- The level of expressed mRNA in the presence of chemical substance/The level of expressed mRNA in the absence of chemical substance (yeast gene YPL089C): 1.5
- The level of expressed mRNA in the presence of chemical substance/The level of expressed mRNA in the absence of chemical substance (yeast gene YPL109C): 1.2
- The level of expressed mRNA in the presence of chemical substance/ (ratio to absence), gene YPL134C (yeast gene YPL134C, mitochondria-located protein genes, 2 h culture with chemical): 1.3
- The level of expressed mRNA in the presence of chemical substance/ (ratio to absence of chemical substance) (yeast gene YPL140C): 0.9
- The level of expressed mRNA in the presence of chemical substance/ (ratio to absence) (yeast gene YPL147W): 1.5
- The level of expressed mRNA in the presence of chemical substance/ (in its absence), gene YPL148C (yeast gene YPL148C, ratio of DNA chip fluorescence intensity to that without chemical substance): 1.0
- The level of expressed mRNA in the presence of chemical substance/The level of expressed mRNA in the absence of chemical substance (yeast gene YPL149W): 2.2
- The level of expressed mRNA in the presence of chemical substance/The level of expressed mRNA in the absence of chemical substance (yeast gene YPL154C): 1.6
- The level of expressed mRNA in the presence of chemical substance/ (yeast gene YPL166W): 1.1
- The level of expressed mRNA in the presence of chemical substance/ (ratio to absence of chemical substance) (yeast gene YPL194W): 1.0
- The level of expressed mRNA in the presence of chemical substance/ (yeast gene YPL202C): 1.1
- The level of expressed mRNA in the presence of chemical substance/ (ratio to absence) (yeast gene YPL224C): 1.3
- The level of expressed mRNA in the presence of chemical substance/ (ratio to absence) (yeast gene YPL265W): 0.5
- The level of expressed mRNA in the presence of chemical substance/ (ratio to absence) (yeast gene YPL271W): 1.2
- The level of expressed mRNA in the presence of chemical substance/ (ratio to absence) (yeast gene YPL274W): 0.7
- The level of expressed mRNA in the presence of chemical substance/ (ratio to absence of chemical substance) (yeast gene YPR005C): 1.0
- The level of expressed mRNA in the presence of chemical substance/ (yeast gene YPR077C): 1.4
- The level of expressed mRNA in the presence of chemical substance/The level of expressed mRNA in the absence of chemical substance (yeast gene YPR103W): 1.2
- The level of expressed mRNA in the presence of chemical substance/The level of expressed mRNA in the absence of chemical substance (yeast gene YPR108W): 1.0
- The level of expressed mRNA in the presence of chemical substance/ (ratio to absence) (yeast gene YPR124W): 1.0
- The level of expressed mRNA in the presence of chemical substance/ (yeast gene YPR147C): 1.1
- The level of expressed mRNA in the presence of chemical substance/ (in its absence), gene YPR165W (yeast gene YPR165W, ratio of DNA chip fluorescence intensity to that without chemical substance): 2.3
- The level of expressed mRNA in the presence of chemical substance/in the absence of chemical substance (yeast gene YPR167C): 1.7
- The level of expressed mRNA in the presence of chemical substance/ in its absence, gene YPR184W (energy system protein genes, 2 h culture with the chemical, ratio to control without chemical): 1.0
- The level of expressed mRNA in the presence of chemical substance/ in its absence, gene YPR184W (ratio of DNA chip fluorescence intensity to that without chemical substance): 1.0
- The level of expressed mRNA in the presence of chemical substance/ (ratio to absence) (yeast gene YPR201W): 0.8
